# Measurements reported in patent publication US20100210649A1, “PYRIDAZINONES AND FURAN-CONTAINING COMPOUNDS” (Sloan-Kettering Institute for Cancer Research, priority 2006, published 2010).
# How the values were obtained:
# Format in all cases: cell-based, human
# H2030 = assay: Non Small Cell Lung Cancer proliferation assay (Alamar Blue reduction), H2030; conditions: primary screening, 10 μM compound in 1% DMSO (v/v); for inhibition at 10 µM: Homo sapiens, NCI-H2030, read-out: percentage inhibition H2030
# In short: (§1)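 Proliferation after 48 h compound exposure (1% DMSO final, 37 °C) was read by Alamar Blue reduction over an additional 48 h, fluorescence at 530 nm excitation/590 nm emission. Dose-response runs seeded 250 cells/well; DMSO-only wells as high control.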
# H1975 = assay: Non Small Cell Lung Cancer proliferation assay (Alamar Blue reduction), H1975; conditions: primary screening, 10 μM compound in 1% DMSO (v/v); for inhibition at 10 µM: Homo sapiens, NCI-H1975, read-out: percentage inhibition H1975
# In short: as §1
# H3255 = assay: Non Small Cell Lung Cancer proliferation assay (Alamar Blue reduction), H3255; conditions: primary screening, 10 μM compound in 1% DMSO (v/v); for inhibition at 10 µM: Homo sapiens, NCI-H3255, read-out: percentage inhibition H3255
# In short: as §1
# H1650 = assay: Non Small Cell Lung Cancer proliferation assay (Alamar Blue reduction), H1650; conditions: primary screening, 10 μM compound in 1% DMSO (v/v); for inhibition at 10 µM: Homo sapiens, NCI-H1650, read-out: percentage inhibition H1650
# In short: as §1
Structure (SMILES),inhibition at 10 µM (H2030) [%],inhibition at 10 µM (H1975) [%],inhibition at 10 µM (H3255) [%],inhibition at 10 µM (H1650) [%],percentage inhibition H2030 (H2030) [%],percentage inhibition H1975 (H1975) [%],percentage inhibition H3255 (H3255) [%],percentage inhibition H1650 (H1650) [%]
N=c1c(-c2nc3ccccc3[nH]2)cc(C(=O)c2cccs2)nn1-c1ccccc1 [compound 186924],1,14,8,7,–,–,–,–
COc1ccc(-n2nc(C(=O)c3cccs3)cc(-c3nc4ccccc4[nH]3)c2=N)cc1 [compound 186925],1,3,-28,6,–,–,–,–
N#Cc1ccccc1-n1nc(C(=O)c2cccs2)cc(-c2nc3ccccc3[nH]2)c1=N [compound 186926],–,–,–,–,2,81,52,27
CC(=O)N(C(C)=O)c1c(Cl)cnn(-c2ccccc2)c1=O [compound 187116],4,90,27,31,–,–,–,–
COc1cnn(-c2ccccc2)c(=O)c1S [compound 187118],7,96,108,101,–,–,–,–
Cc1cc(N(C)C)c(=O)n(-c2ccccc2)n1 [compound 189015],-4,29,32,21,–,–,–,–
O=c1ccc(O)nn1-c1ccccc1 [compound 189286],5,9,-15,0,–,–,–,–
COC(=O)NCCOc1cnn(-c2ccccc2)c(=O)c1 [compound 189493],-8,12,-25,2,–,–,–,–
COc1ccc(-n2nc(C(=O)c3ccccc3)cc(-c3nc4ccccc4[nH]3)c2=N)cc1 [compound 193067],4,21,-35,-7,–,–,–,–
CCc1c(C(=O)OC)nn(-c2ccc(C)cc2)c(=O)c1C#N [compound 193326],-9,-1,-49,-2,–,–,–,–
COc1ccc(-n2nc(Cl)ccc2=O)cc1 [compound 194491],-12,0,-32,-2,–,–,–,–
O=c1c(Cl)c(N2CCN(CCO)CC2)cnn1-c1cccc(Cl)c1 [compound 194617],-4,9,-5,-9,–,–,–,–
CN1CCN(c2cnn(-c3ccc(Cl)cc3)c(=O)c2Cl)CC1 [compound 194618],-6,-3,-48,-15,–,–,–,–
Cc1c(C(=O)NN)nn(-c2ccccc2)c(=O)c1C#N [compound 194841],-9,-15,-35,-1,–,–,–,–
O=c1c(SCc2ccc(Cl)cc2)c(SC2CCCCO2)cnn1-c1ccccc1 (stereo not drawn) [compound 195063],-6,34,-6,22,–,–,–,–
O=c1cc(N2CCOCC2)cnn1-c1ccccc1 [compound 195066],9,-3,-9,8,–,–,–,–
O=c1c(Sc2ccccc2)c(Sc2ccccc2)cnn1-c1ccccc1 [compound 195070],-7,9,-73,8,–,–,–,–
O=c1c(SCc2ccco2)c(SCc2ccco2)cnn1-c1ccccc1 [compound 195071],9,77,82,71,–,–,–,–
O=c1ccc(Cl)nn1-c1ccccc1 [compound 195149],-5,11,-19,-4,–,–,–,–
O=c1c2c(cnn1-c1ccccc1)SCCS2 [compound 195988],7,-7,-18,13,–,–,–,–
O=c1c(SCc2ccccc2)c(N2CCCCC2)cnn1-c1ccccc1 [compound 195989],6,35,-27,21,–,–,–,–
O=c1c(Cl)cc(Cl)nn1-c1ccccc1 [compound 196392],-13,99,111,87,–,–,–,–
O=c1ccc(Oc2nc(N3CCCCC3)nc(N3CCCCC3)n2)nn1-c1ccccc1 [compound 196618],12,-14,-33,3,–,–,–,–

Structure (SMILES),inhibition at 10 µM (H2030) [%],inhibition at 10 µM (H1975) [%],inhibition at 10 µM (H3255) [%],inhibition at 10 µM (H1650) [%],percentage inhibition H2030 (H2030) [%],percentage inhibition H1975 (H1975) [%],percentage inhibition H3255 (H3255) [%],percentage inhibition H1650 (H1650) [%]
O=C(O)c1ccc(-n2ncc(Cl)c(Cl)c2=O)cc1 [compound 197940],2,-6,-37,11,–,–,–,–
O=C(COc1cnn(-c2ccccc2)c(=O)c1Cl)c1ccccc1 [compound 199759],9,36,66,16,–,–,–,–
O=C(COCCOc1cnn(-c2ccccc2)c(=O)c1Cl)c1ccccc1 [compound 199760],21,-22,6,12,–,–,–,–
CCOC(=O)N(CCOc1cnn(-c2ccccc2)c(=O)c1)C(=O)OCC [compound 199761],6,-25,41,-7,–,–,–,–
CCOC(=O)NCCOc1cnn(-c2ccc(Cl)cc2)c(=O)c1Cl [compound 199764],-9,-14,2,-11,–,–,–,–
NCCOc1cnn(-c2ccccc2Cl)c(=O)c1Cl [compound 200052],12,5,-18,-9,–,–,–,–
CCOC(=O)NCCOc1cnn(-c2ccccc2)c(=O)c1Cl [compound 201622],4,-23,33,5,–,–,–,–
O=c1c(Cl)c(Cl)c(Cl)nn1-c1ccc(Br)cc1 [compound 202245],-8,96,71,48,–,–,–,–
COc1cc(Cl)nn(-c2ccccc2)c1=O [compound 206569],7,3,22,-2,–,–,–,–
O=c1c(SCc2ccc(Cl)cc2Cl)c(SCc2ccc(Cl)cc2Cl)cnn1-c1ccccc1 [compound 208619],-12,1,-19,-4,–,–,–,–
O=c1c(SCc2ccccc2)c(SCc2ccccc2)cnn1-c1ccccc1 [compound 208693],-11,-7,0,-6,–,–,–,–
COc1cnn(-c2ccc(C)cc2)c(=O)c1SCc1ccccc1 [compound 208694],3,-29,-16,-21,–,–,–,–
O=c1c(SCc2ccccc2Cl)c(SCc2ccccc2Cl)cnn1-c1ccccc1 [compound 208695],-11,-13,-2,-14,–,–,–,–
CCCCSc1cnn(-c2ccccc2)c(=O)c1SCc1ccccc1 [compound 208696],4,-19,37,-2,–,–,–,–
O=c1c(Cl)c(SC(c2ccccc2)c2ccccc2)cnn1-c1ccccc1 [compound 208697],4,-16,31,-3,–,–,–,–
O=c1c(SCc2ccccc2)c(SCc2ccccc2)cnn1-c1ccc(Br)cc1 [compound 208699],10,-22,19,-12,–,–,–,–
COc1cnn(-c2ccccc2)c(=O)c1SCc1ccc(Cl)cc1Cl [compound 208701],7,-25,7,-4,–,–,–,–
O=c1c(SCc2ccccc2)cc(Cl)nn1-c1ccccc1 [compound 208702],-15,-16,0,3,–,–,–,–
Cc1cccc(-n2ncc(SCc3ccccc3)c(SCc3ccccc3)c2=O)c1 [compound 208703],9,-18,16,2,–,–,–,–
O=c1c(SCc2ccc(Cl)cc2)c(SCc2ccccc2)cnn1-c1ccccc1 [compound 208704],-15,-6,-23,-10,–,–,–,–
O=c1c(SCc2ccccc2)c(SCc2ccc(Cl)cc2)cnn1-c1ccccc1 [compound 208705],10,-20,0,-4,–,–,–,–
CC(C)Oc1c(S)cnn(-c2ccccc2)c1=O [compound 213495],-5,-15,8,4,–,–,–,–
